The values that follow come from US11655253B2, “CBP/catenin signaling pathway inhibitors and uses thereof” (3+2 Pharma, LLC, priority 2020, dated 2023).

In data set [1] the test system is bleomycin induced model of IPF in mice. Kind of data set: Bleomycin induced mouse model of idiopathic pulmonary fibrosis. It is filed as in vivo. The conditions noted are these: for overall survival and Ashcroft scoring versus historical control data for pirfenidone and nintedanib: from day 7 after bleomycin for 2 weeks; for extracellular collagen deposition (Masson's trichrome blue staining) compared to bleomycin saline treated historical control / survival: all treatment groups; for survival: to day 21; for Ashcroft score / Left lung weight / Post-caval lobe weight / Body weight: n = 3, mean +/− SD; for Body weight: day of sacrifice. From the text: Bleomycin induced model of IPF.
Results. […] FIGS. 8A-8E are as follows: historical bleomycin saline treated control (8A, “ID:103”); [3+2]-120A low dose (8B, “ID:102”); [3+2]-120A high dose (8C, “ID:201”); [[3+2]-120B low dose (8D, ID:302”); and [3+2]-120B high dose (8E, ID:401”).

Data set [2] has as its system STAM mouse model of NASH-HCC. The data set is described as follows: STAM mouse model of NASH-HCC. Type of data set: in vivo, mice. The note with it: after 4 weeks of treatment, vehicle 5 out of 8. How it is done:
In the vehicle control treated group only 5 out of 8 mice survived, whereas in the 3+2]-120A at 100 mg/kg/day (A-low) and 400 mg/kg/day (A-high), 7 out of 8 and 8 out of 8 mice survived respectively.

The subject of data set [3] is patients with HCV cirrhosis. The note with it: intravenous, cited from earlier work.
Data set [4] has as its system memory CD4+ T-cells in SIVmac251-infected RMs. The conditions noted are these: ART-suppressed SIVmac251-infected RMs; cited from earlier work.
Data set [5] relates to NC/Nga mice atopic dermatitis model. The data set is described as follows: NC/Nga mouse model of atopic dermatitis. Type of data set: in vivo. The note with it: for dermatitis scores compared to vehicle control / TEWL (transepidermal water loss) compared to vehicle control: topical once daily Day 0-13; for TEWL (transepidermal water loss) compared to vehicle control: day 14; for mean body weight versus Vehicle group: any day during the treatment period. How it is done:
NC/Nga mice (female) were obtained from CHARLES RIVER LABORATORIES JAPAN INC. Mice were randomized into […] of 8 mice on Day 0 based on their body weight and dermatitis score. Eight NC/Nga mice were topically administered test compound-containing [3+2]-121A (compound 34) ointment (in a volume of 100 mg) once daily from Day 0 to Day 13, or vehicle control (hydrophilic petrolatum).
Representative test substance [3+2]-121A was formulated in hydrophilic petrolatum at low (100 uM) and high (500 uM) dosages (referred to in the study as [3+2]-121A and [3+2]-121B, respectively). 7-week-old female NC/Nga mice were used. The first induction of atopic dermatitis was performed three weeks before compound administration, for which the mice were shaved of hair on their backs and behind the ears with a clipper and a shaver. Then the mice had their hair removed completely with a depilatory agent (Epilat™, Kracie Home Products, Ltd.) before 100 mg of Biostir AD® ointment was applied to the shaved dorsal skin and both surfaces of each ear evenly with a plastic spoon. The second induction of atopic dermatitis was performed subsequently. The mice were shaved of hair on their backs and behind the ears, then 150 μl of 4% sodium lauryl sulfate solution was applied to the back and behind the ears with a plastic spoon. After this, it was dried with a hair dryer (cold air) and then left to dry naturally for about 1 to 2 hours. 100 mg of Biostir AD® ointment was applied to the shaved dorsal skin and both surfaces of each ear evenly with a plastic spoon. This procedure was repeated twice a week for three weeks. Twenty-four atopic dermatitis model mice were sorted into 3 groups of 8 mice based on their body weight and dermatitis severity score on the morning at Day 0. Vehicle control (hydrophilic petrolatum), [3+2]-121A or [3+2]-121B was administered topically in a volume of 100 mg once daily from Day 0 to Day 13. Body weight and food consumption were measured once a week at Day 0, 7 and 14. The severity of dermatitis was evaluated at Day 0, 3, 7, 10 and 14. The development of 1) erythema/hemorrhage, 2) scarring/dryness, 3) edema, 4) excoriation/erosion were scored as 0 (none), 1 (mild), 2 (moderate) and 3 (severe). The sum of the individual scores was taken as the dermatitis score. The TEWL was evaluated at Day 0 and at Day 14 after administration. Histological analyses were performed on lower neck dorsal skin and auricle that were fixed in 10% neutral formalin, embedded in paraffin and sectioned at 3-4 μm sections and stained with hematoxylin-eosin using Carrazzi's hematoxylin solution. For analysis of the skin area, bright field images of HE-stained sections were randomly captured using a digital camera (DS-Fi3; Nikon) at 2 and 4-fold magnification. Statistical analyses were performed using Prism Software 6 (GraphPad Software, USA). Statistical analyses were performed using Dunnett's Comparison Test. Comparisons were made between the following groups; Group 1 (Vehicle) vs. Group 2 ([3+2]-121A) and Group 3 ([3+2]-121B). P values <0.05 were considered statistically significant. Results were expressed as mean±SD.

Data set [6] deals with β-catenin binding to p300. Kind of data set: Co-immunoprecipitation assay in SW480 cells, p300 IP. It is filed as cell-based. As to the method:
(§1) FIG. 4A and FIG. 4B, show, according to further non-limiting aspects of the present invention, a co-immunoprecipitation assay that was performed in SW480 cells as previously described (Emami K. et al. PNAS USA, 2004 Aug. 24; 101 (34): 12682-7) to further confirm that the positive control compound ICG-001 and [3+2]-117 selectively disrupt β-catenin binding to CBP (FIG. 4A), while enhancing the binding of β-catenin to p300 (FIG. 4B). Immunoprecipitation of β-catenin with CBP was inhibited by ICG-001 at 10 μM ([…]) and by [3+2]-117 at 500 nM. […] Quantification of the immunoblotting data based upon pixelation is shown below the immunoblots.

A further data set deals with T1, β-catenin binding to CBP (Homo sapiens, UniProt Q92793).
T1 construct: endogenous in cells; host or cells: SW480 colorectal cancer cells
Kind of data set: Co-immunoprecipitation assay in SW480 cells, CBP IP. Type of data set: cell-based. The conditions noted are these: 10 μM. How it is done:
as §1

Setting [7] is: both dosage groups (100 and 400 mg/kg/day p.o.).
The mark [8] stands for this setting: high dosage group (400 mg/kg/day p.o.).

Molecules are shown by their SMILES. “Also recorded” adds a separate entry of the source.

T1 sequence (Q92793 whole entry): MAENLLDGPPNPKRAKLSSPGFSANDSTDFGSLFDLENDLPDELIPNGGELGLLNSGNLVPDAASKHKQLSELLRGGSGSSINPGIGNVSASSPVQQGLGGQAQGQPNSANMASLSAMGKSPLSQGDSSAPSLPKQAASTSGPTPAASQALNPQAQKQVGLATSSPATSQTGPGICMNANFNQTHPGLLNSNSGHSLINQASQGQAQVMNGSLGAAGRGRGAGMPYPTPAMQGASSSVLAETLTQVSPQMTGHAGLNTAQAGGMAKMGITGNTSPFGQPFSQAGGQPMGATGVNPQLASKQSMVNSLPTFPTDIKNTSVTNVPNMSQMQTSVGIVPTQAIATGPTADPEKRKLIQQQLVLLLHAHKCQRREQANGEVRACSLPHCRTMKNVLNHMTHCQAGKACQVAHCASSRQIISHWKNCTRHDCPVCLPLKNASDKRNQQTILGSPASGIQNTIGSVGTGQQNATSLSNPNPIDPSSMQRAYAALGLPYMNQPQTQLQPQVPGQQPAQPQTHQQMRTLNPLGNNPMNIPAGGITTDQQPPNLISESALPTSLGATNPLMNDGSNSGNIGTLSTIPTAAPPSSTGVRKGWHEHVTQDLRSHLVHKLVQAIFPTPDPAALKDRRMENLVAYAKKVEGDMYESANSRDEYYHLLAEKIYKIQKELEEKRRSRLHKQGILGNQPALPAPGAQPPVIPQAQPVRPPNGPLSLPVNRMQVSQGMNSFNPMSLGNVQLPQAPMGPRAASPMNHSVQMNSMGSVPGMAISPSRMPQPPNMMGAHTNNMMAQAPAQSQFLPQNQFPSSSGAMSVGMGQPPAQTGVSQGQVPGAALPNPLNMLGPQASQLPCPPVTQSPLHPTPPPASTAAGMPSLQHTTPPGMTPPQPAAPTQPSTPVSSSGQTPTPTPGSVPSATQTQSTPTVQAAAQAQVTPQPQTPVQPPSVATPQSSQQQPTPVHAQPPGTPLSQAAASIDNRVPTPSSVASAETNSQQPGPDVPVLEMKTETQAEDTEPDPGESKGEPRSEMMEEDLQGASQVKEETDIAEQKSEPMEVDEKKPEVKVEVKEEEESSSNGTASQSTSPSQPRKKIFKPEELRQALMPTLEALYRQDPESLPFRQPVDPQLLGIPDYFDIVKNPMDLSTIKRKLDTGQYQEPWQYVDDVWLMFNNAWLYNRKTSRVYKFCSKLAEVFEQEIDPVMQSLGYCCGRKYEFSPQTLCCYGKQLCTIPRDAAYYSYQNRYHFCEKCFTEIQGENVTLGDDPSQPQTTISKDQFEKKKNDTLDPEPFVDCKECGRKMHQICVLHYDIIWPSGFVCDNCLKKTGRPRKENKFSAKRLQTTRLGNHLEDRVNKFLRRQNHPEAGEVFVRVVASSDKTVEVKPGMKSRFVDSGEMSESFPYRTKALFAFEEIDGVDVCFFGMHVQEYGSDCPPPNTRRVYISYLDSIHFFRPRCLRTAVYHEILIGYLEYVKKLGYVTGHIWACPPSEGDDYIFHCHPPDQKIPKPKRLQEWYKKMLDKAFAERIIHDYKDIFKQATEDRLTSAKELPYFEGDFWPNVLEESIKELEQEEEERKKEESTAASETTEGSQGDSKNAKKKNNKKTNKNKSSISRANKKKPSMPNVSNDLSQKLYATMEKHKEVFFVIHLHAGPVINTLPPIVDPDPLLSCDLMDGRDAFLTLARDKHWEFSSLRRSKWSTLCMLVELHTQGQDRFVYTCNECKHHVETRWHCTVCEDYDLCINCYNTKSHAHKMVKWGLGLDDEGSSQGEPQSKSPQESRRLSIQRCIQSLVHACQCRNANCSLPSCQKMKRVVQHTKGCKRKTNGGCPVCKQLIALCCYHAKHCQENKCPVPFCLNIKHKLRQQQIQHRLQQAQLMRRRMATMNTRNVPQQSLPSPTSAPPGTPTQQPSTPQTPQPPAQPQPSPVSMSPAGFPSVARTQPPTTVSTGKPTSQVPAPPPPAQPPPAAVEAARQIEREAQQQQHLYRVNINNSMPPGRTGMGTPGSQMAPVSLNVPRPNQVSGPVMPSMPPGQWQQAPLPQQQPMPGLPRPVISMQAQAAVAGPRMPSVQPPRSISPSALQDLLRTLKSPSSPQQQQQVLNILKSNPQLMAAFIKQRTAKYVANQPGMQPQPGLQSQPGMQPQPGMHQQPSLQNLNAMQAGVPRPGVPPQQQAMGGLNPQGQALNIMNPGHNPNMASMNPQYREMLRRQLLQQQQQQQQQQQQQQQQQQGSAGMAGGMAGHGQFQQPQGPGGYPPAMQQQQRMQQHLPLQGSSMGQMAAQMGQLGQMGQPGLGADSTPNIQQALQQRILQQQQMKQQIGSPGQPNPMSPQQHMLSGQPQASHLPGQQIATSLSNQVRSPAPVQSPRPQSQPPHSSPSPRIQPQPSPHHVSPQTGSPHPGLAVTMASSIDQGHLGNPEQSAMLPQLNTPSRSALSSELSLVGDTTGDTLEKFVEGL

`CS(=O)(=O)O.O=C1[C@H](Cc2ccc(O)cc2)N2C(=O)CN(Cc3cc(-c4ccccn4)no3)N(C(=O)NCc3ccccc3)[C@H]2CN1Cc1cccc2ncccc12` [[3+2]-120A]: the “overall survival and Ashcroft scoring versus historical control data for pirfenidone and nintedanib” value in data set [1] (100 mg/kg/day p.o.) was “compared favorably”. Further, in data set [1] (400 mg/kg/day p.o.), the “overall survival and Ashcroft scoring versus historical control data for pirfenidone and nintedanib” value is reported as “compared favorably”. Besides, in data set [1], the “extracellular collagen deposition (Masson's trichrome blue staining) compared to bleomycin saline treated historical control” value was “significant reduction” and the survival result was “all mice survived”. Further, in data set [1] (setting [7]), the Ashcroft scores result is on record as “significant decrease”, the lung weights entry is reported as “significant decrease” and the weight gain entry was “significant increase”. Also, in data set [1] (high dose (400 mg/kg/day p.o.)), the Ashcroft score was 2.5 +/− 2.0, the Left lung weight was determined as 66 ± 33 mg, the Post-caval lobe weight was 25 ± 18 mg and the Body weight came to 16.9 ± 3.8 g. In data set [1] (low dose p.o.), the Ashcroft score is 2.2 +/− 1.7, the Left lung weight was determined as 65 ± 19 mg, the Post-caval lobe weight was 21 ± 9 mg and the Body weight came to 18.2 ± 0.7 g. For the same compound, the mice survived in data set [2] (100 mg/kg/day p.o. (A-low)) was 7 out of 8. In addition, the mice survived in data set [2] (400 mg/kg/day p.o. (A-high)) is reported as 8 out of 8.
Consider `C[C@H]1[C@H]2N(C(=O)CN(C)N2C(=O)NCc2ccccc2)[C@@H](Cc2ccc(OP(=O)(O)O)cc2)C(=O)N1Cc1cccc2cccnc12` [PRI-724], for which the safety result in data set [3] (10 and 40 mg/m^2/day for 12 weeks (1 week on and 1 week off)) is listed as “safe”. Besides, in data set [3] (10 and 40 mg/m^2/day for 12 weeks), the “plasma exposure of the drug” value is on record as “dose-dependent”. Moreover, the “liver histology and Child Pugh scores” value in data set [3] (10 and 40 mg/m^2/day for 12 weeks, in several patients) is listed as “improvement”. For the same compound, the “proliferation of T memory stem cells (SCM) and central memory T-cells (CM)” value in data set [4] was “decrease”.
For the compound `CCCCCCCCCCCC(=O)Oc1ccc(C[C@H]2C(=O)N(Cc3cccc4ccccc34)C[C@H]3N2C(=O)CN(Cc2cc(-c4ccccc4)no2)N3C(=O)NCc2ccccc2)cc1` [[3+2]-121A], in data set [5] (high (500 uM) ointment), the “dermatitis scores compared to vehicle control” value is on record as “significantly decreased” and the “TEWL (transepidermal water loss) compared to vehicle control” value was “significantly decreased”. For the same compound, in data set [5] (low (100 uM)), the “food consumption per mouse versus Vehicle group” value was “no significant differences”; the “inflammation and inflammatory cell influx (histological analysis)” value is reported as “significant reduction”; the “mean body weight versus Vehicle group” value is on record as “no significant differences”. Further, in data set [5] (low (100 uM) ointment), the “dermatitis scores compared to vehicle control” value was “significantly decreased” and the “TEWL (transepidermal water loss) compared to vehicle control” value is “significantly decreased; also recorded: significant decrease”. The “dermatitis severity score on the back compared with Vehicle group” value in data set [5] (low (100 uM), Days 10 and 14) is listed as “significant decrease”. The “total dermatitis severity score compared with Vehicle control group” value in data set [5] (low (100 uM), primarily on the back, Days 10 and 14) is on record as “significant decrease”.
With `CCOC(=O)CNC(=O)CNC(=O)Oc1ccc(C[C@H]2C(=O)N(Cc3cccc4ncccc34)C[C@H]3N2C(=O)CN(Cc2cc(-c4ccccn4)no2)N3C(=O)NCc2ccccc2)cc1` [[3+2]-120B, ethyl 2-(2-((4-(((6S,9aS)-1-(benzylcarbamoyl)-4,7-dioxo-2-((3-(pyridin-2-yl)isoxazol-5-yl)methyl)-8-(quinolin-5-ylmethyl)octahydro-1H-pyrazino[2,1-c][1,2,4]triazin-6-yl)methyl)phenoxy)carbonylamino)acetamido)acetate], the “overall survival and Ashcroft scoring versus historical control data for pirfenidone and nintedanib” value in data set [1] (400 mg/kg/day p.o.) was “compared favorably”. In addition, in data set [1], the “extracellular collagen deposition (Masson's trichrome blue staining) compared to bleomycin saline treated historical control” value is listed as “significant reduction” and the survival entry is “all mice survived”. Further, in data set [1] (setting [8]), the Ashcroft scores result is on record as “significant decrease”, the lung weights entry is “significant decrease” and the weight gain entry is “significant increase”. In data set [1] (high dose (400 mg/kg/day p.o.)), the Ashcroft score is recorded as 2.1 +/− 0.7, the Left lung weight stood at 65 ± 13 mg, the Post-caval lobe weight is 21 ± 6 mg and the Body weight turned out to be 19.5 ± 1.6 g. In addition, in data set [1] (low dose p.o.), the Ashcroft score is 3.9 +/− 1.4, the Left lung weight worked out at 77 ± 15 mg, the Post-caval lobe weight worked out at 39 ± 17 mg and the Body weight was 15.1 ± 3.8 g.
As for `O=C1[C@H](Cc2ccc(O)cc2)N2C(=O)CCN(C(=O)NCc3ccccc3)[C@H]2CN1Cc1cccc2ccccc12` [ICG-001], the “minimal interaction between β-catenin and p300” value in data set [6] is given as “not blocked”. In addition, the “amount of β-catenin co-immunoprecipitated with p300” value in data set [6] (10 μM) is “slightly increases”. The “Immunoprecipitation of β-catenin with CBP” value at β-catenin binding to CBP is on record as “inhibited”.
Take `CCCCCCCCCCCC(=O)Oc1ccc(C[C@H]2C(=O)N(Cc3cccc4ccccc34)C[C@H]3N2C(=O)CN(Cc2cc(-c4ccccc4)no2)N3C(=O)NCc2ccccc2)cc1` [[3+2]-121B]: in data set [5] (high (500 uM)), the “food consumption per mouse versus Vehicle group” value is “no significant differences”; the “inflammation and inflammatory cell influx (histological analysis)” value was “significant reduction”; the “mean body weight versus Vehicle group” value is listed as “no significant differences”. For the same compound, in data set [5] (high (500 uM) ointment, listed as 121B), the “TEWL (transepidermal water loss) compared to vehicle control” value is on record as “significant decrease”.
